Assays:
[1] = tested on: foxtail, giant (giant foxtail, Setaria faberii); test: Test A postemergence foxtail, giant; assay type: in vivo; conditions: Setaria faberi, post-emergence, 240 h, 0 to 100 scale, 0 is no effect, 100 is complete control, read-out: Plant response rating, Foxtail, Giant
How it was run: (§1)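 Injury was scored by eye on a 0 to 100 scale after about 10 days in the greenhouse, with 100 meaning complete control. Preemergence treatment was a directed spray onto soil over seeds; postemergence treatment went onto one- to two-leaf plants 2–10 cm tall.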

[2] = tested on: foxtail, giant (giant foxtail, Setaria faberii); test: Test A preemergence foxtail, giant; assay type: in vivo; conditions: Setaria faberi, pre-emergence, 240 h, 0 to 100 scale, 0 no effect, 100 complete control, read-out: Foxtail, Giant plant response rating
How it was run: as §1

[3] = tested on: sedge, umbrella (small-flower umbrella sedge, Cyperus difformis); test: Test C flooded paddy test sedge, umbrella; assay type: in vivo; conditions: Table C, Flood, scale 0 to 100
How it was run: (§2)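 Plants grown to the 2-leaf stage in pots flooded to 3 cm above soil; compounds applied directly into the paddy water, depth held throughout. After 13 to 15 d in greenhouse, injury visually rated against untreated controls on a 0–100 scale (0 no effect, 100 complete control).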

[4] = tested on: barnyardgrass (Echinochloa crus-galli); test: Test A postemergence barnyardgrass; assay type: in vivo; conditions: Echinochloa crus-galli, post-emergence, 240 h, 0 to 100 scale, 0 is no effect, 100 is complete control, read-out: Plant response rating, Barnyardgrass
How it was run: as §1

[5] = tested on: blackgrass (Alopecurus myosuroides); test: Test A postemergence blackgrass; assay type: in vivo; conditions: Alopecurus myosuroides, post-emergence, 240 h, 0 to 100 scale, 0 is no effect, 100 is complete control, read-out: Plant response rating, Blackgrass
How it was run: as §1

[6] = tested on: ryegrass, Italian (Italian ryegrass, Lolium multiflorum); test: Test A postemergence ryegrass, Italian; assay type: in vivo; conditions: Lolium multiflorum, post-emergence, 240 h, 0 to 100 scale, 0 is no effect, 100 is complete control, read-out: Plant response rating, Ryegrass, Italian
How it was run: as §1

[7] = tested on: galium (catchweed bedstraw, Galium aparine); test: Test A postemergence galium; assay type: in vivo; conditions: Galium, post-emergence, 240 h, 0 to 100 scale, 0 is no effect, 100 is complete control, read-out: Plant response rating, Galium
How it was run: as §1

corn (Zea mays) = test: Test A postemergence corn; assay type: in vivo; conditions: Zea mays, post-emergence, 240 h, 0 to 100 scale, 0 is no effect, 100 is complete control
How it was run: as §1

[8] = tested on: pigweed (Amaranthus retroflexus); test: Test A postemergence pigweed; assay type: in vivo; conditions: Amaranthus retroflexus, post-emergence, 240 h, 0 to 100 scale, 0 is no effect, 100 is complete control, read-out: Plant response rating, Pigweed
How it was run: as §1

[9] = tested on: ragweed (common ragweed, Ambrosia elatior); test: Test A postemergence ragweed; assay type: in vivo; conditions: Ambrosia artemisiifolia, post-emergence, 240 h, 0 to 100 scale, 0 is no effect, 100 is complete control, read-out: Plant response rating, Ragweed
How it was run: as §1

[10] = tested on: barnyardgrass (Echinochloa crus-galli); test: Test A preemergence barnyardgrass; assay type: in vivo; conditions: 0 to 100 scale
How it was run: as §1

[11] = tested on: barnyardgrass (Echinochloa crus-galli); test: Test C flooded paddy test barnyardgrass; assay type: in vivo; conditions: Table C, Flood, scale 0 to 100
How it was run: as §2

rice (Oryza sativa) = test: Test C flooded paddy test rice; assay type: in vivo; conditions: Table C, Flood, scale 0 to 100
How it was run: as §2

[12] = tested on: ryegrass, Italian (Italian ryegrass, Lolium multiflorum); test: Test A preemergence ryegrass, Italian; assay type: in vivo; conditions: Lolium multiflorum, pre-emergence, 240 h, 0 to 100 scale, 0 no effect, 100 complete control, read-out: Ryegrass, Italian plant response rating
How it was run: as §1

kochia (Kochia scoparia) [13] = test: Test A postemergence kochia; assay type: in vivo; conditions: Bassia scoparia, post-emergence, 240 h, 0 to 100 scale, 0 is no effect, 100 is complete control, read-out: Plant response rating, Kochia
How it was run: as §1

[14] = tested on: ragweed (common ragweed, Ambrosia elatior); test: Test A preemergence ragweed; assay type: in vivo; conditions: Ambrosia artemisiifolia, pre-emergence, 240 h, 0 to 100 scale, 0 no effect, 100 complete control, read-out: Ragweed plant response rating
How it was run: as §1

[15] = tested on: ducksalad (Heteranthera limosa); test: Test C flooded paddy test ducksalad; assay type: in vivo; conditions: Table C, Flood, scale 0 to 100
How it was run: as §2

[16] = tested on: pigweed (Amaranthus retroflexus); test: Test A preemergence pigweed; assay type: in vivo; conditions: Amaranthus retroflexus, pre-emergence, 240 h, 0 to 100 scale, 0 no effect, 100 complete control, read-out: Pigweed plant response rating
How it was run: as §1

kochia (Kochia scoparia) [17] = test: Test A preemergence kochia; assay type: in vivo; conditions: Bassia scoparia, pre-emergence, 240 h, 0 to 100 scale, 0 no effect, 100 complete control, read-out: Kochia plant response rating
How it was run: as §1

[18] = tested on: wheat (Triticum aestivum); test: Test A postemergence wheat; assay type: in vivo; conditions: Triticum aestivum, post-emergence, 240 h, 0 to 100 scale, 0 is no effect, 100 is complete control, read-out: Plant response rating, Wheat
How it was run: as §1

With `O=C1NCCC(c2ccc(C(F)(F)F)cc2)C1C(=O)Nc1cccc(F)c1F` (stereo not shown) [Compound 11, N-(2,3-difluorophenyl)-2-oxo-4-[4-(trifluoromethyl)phenyl]-3-piperidinecarboxamide] the pest or weed control at 125 g/ha ([1]; 125 g ai/ha) was 80%, the pest or weed control at 500 g/ha ([1]; 500 g ai/ha) was 90% and the pest or weed control at 125 g/ha ([2]; 125 g ai/ha) was 70%. The pest or weed control at 500 g/ha ([2]; 500 g ai/ha) was 90%, the Plant response rating ([3]; 125 g ai/ha) was 0 and the Plant response rating ([3]; 250 g ai/ha) was 0. The Plant response rating ([3]; 500 g ai/ha) was 0, the Plant response rating ([3]; 1000 g ai/ha) was 0 and the pest or weed control at 125 g/ha ([4]; 125 g ai/ha) was 70%. The pest or weed control at 500 g/ha ([4]; 500 g ai/ha) was 90%, the pest or weed control at 125 g/ha ([5]; 125 g ai/ha) was 20% and the pest or weed control at 500 g/ha ([5]; 500 g ai/ha) was 50%. For the same molecule, the pest or weed control at 125 g/ha ([6]; 125 g ai/ha) was 0%, the pest or weed control at 500 g/ha ([6]; 500 g ai/ha) was 30% and the melting point was 180 to 182 °C. It also gave a pest or weed control at 125 g/ha ([7]; 125 g ai/ha) of 40%, a pest or weed control at 500 g/ha ([7]; 500 g ai/ha) of 60% and a Corn plant response rating (crop injury, 0 = no effect, 100 = complete kill) at 125 g/ha (corn (Zea mays); 125 g ai/ha) of 0%. It also gave a Corn plant response rating (crop injury, 0 = no effect, 100 = complete kill) at 500 g/ha (corn (Zea mays); 500 g ai/ha) of 40%, a pest or weed control at 125 g/ha ([8]; 125 g ai/ha) of 0% and a pest or weed control at 500 g/ha ([8]; 500 g ai/ha) of 30%. For the same molecule, the pest or weed control at 125 g/ha ([9]; 125 g ai/ha) was 0%, the pest or weed control at 500 g/ha ([9]; 500 g ai/ha) was 20% and the “Plant response rating, Barnyardgrass” value ([10]; 500 g ai/ha, 0 is no effect, 100 is complete control) was 90. The pest or weed control at 125 g/ha ([10]; Echinochloa crus-galli, pre-emergence, 240 h, 125 g ai/ha, 0 no effect, 100 complete control, read-out: Barnyardgrass plant response rating) was 60%, the Plant response rating ([11]; 125 g ai/ha) was 10 and the Plant response rating ([11]; 250 g ai/ha) was 20. For the same molecule, the Plant response rating ([11]; 500 g ai/ha) was 50, the Plant response rating ([11]; 1000 g ai/ha) was 70 and the Plant response rating (rice (Oryza sativa); 125 g ai/ha) was 0. It also gave a Plant response rating (rice (Oryza sativa); 250 g ai/ha) of 0, a Plant response rating (rice (Oryza sativa); 500 g ai/ha) of 0 and a Plant response rating (rice (Oryza sativa); 1000 g ai/ha) of 0. It also gave a pest or weed control at 125 g/ha ([12]; 125 g ai/ha) of 0%, a pest or weed control at 500 g/ha ([12]; 500 g ai/ha) of 0% and a pest or weed control at 125 g/ha (kochia (Kochia scoparia) [13]; 125 g ai/ha) of 20%. For the same molecule, the pest or weed control at 500 g/ha (kochia (Kochia scoparia) [13]; 500 g ai/ha) was 50%, the pest or weed control at 125 g/ha ([14]; 125 g ai/ha) was 40% and the pest or weed control at 500 g/ha ([14]; 500 g ai/ha) was 80%. It also gave a Plant response rating ([15]; 125 g ai/ha) of 30, a Plant response rating ([15]; 250 g ai/ha) of 80 and a Plant response rating ([15]; 500 g ai/ha) of 95. For the same molecule, the Plant response rating ([15]; 1000 g ai/ha) was 100, the pest or weed control at 125 g/ha ([16]; 125 g ai/ha) was 0% and the pest or weed control at 500 g/ha ([16]; 500 g ai/ha) was 40%. It also gave a pest or weed control at 125 g/ha (kochia (Kochia scoparia) [17]; 125 g ai/ha) of 0%, a pest or weed control at 500 g/ha (kochia (Kochia scoparia) [17]; 500 g ai/ha) of 60% and a plant injury at 125 g/ha ([18]; 125 g ai/ha) of 0%. It also gave a plant injury at 500 g/ha ([18]; 500 g ai/ha) of 50%.

From US9944602B2, “Piperidinone herbicides” (E. I. DU PONT DE NEMOURS AND COMPANY, priority 2014, dated 2018)
